From PubChem BioAssay (NCI)
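Five concentrations, 48 hours, 96-well plates. At the GI50, growth is halved. TGI is the concentration that stops growth completely.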

What follows are compounds tested on NCI-H460 lung (assay: NCI-60 cell line screen, 48 h).

COC(=O)N[C@H](C(=O)NC(OCc1ccccc1)C1COC(C)(C)O1)C(C)O[Si](C)(C)C(C)(C)C (stereo partly drawn) and Cc1ccc(S(=O)(=O)C2=C(C(C)C)N=NC2(C)C)cc1 cannot be ordered by TGI: > 100 µM for the first, > 100 µM for the second.

CC(=O)O[C@]12CCCCCC1C1(O)C(O)CCCCC12 (stereo partly drawn) and CCOC(=O)CCC1(CCC(=O)OCC)CCCCCCCCC(CCC(=O)OCC)(CCC(=O)OCC)C(=O)C1=O cannot be ordered by TGI: > 100 µM for the first, > 100 µM for the second.

Compared with O=Cc1ccc(-c2ccc(-c3ccc(CO)s3)o2)s1, O=C(NCCN1CCOCC1)c1ccc(I)cc1 is higher in TGI: 3.21 µM for the first, > 100 µM for the second.

CN1CC=C(c2c(N)nc(N)[nH]c2=O)CC1 and CN1CCc2c(sc3[nH]c(=S)[nH]c(=S)c23)C1 cannot be ordered by TGI: > 100 µM for the first, > 100 µM for the second.

CC(=O)Nc1c(C(=N)C#N)ncn1CCO and COc1ccc(/C(Cl)=C(\C#N)c2ccc(OC)c(OC)c2)cc1OC cannot be ordered by TGI: > 100 µM for the first, > 100 µM for the second.

Going from COc1cc2nc(-c3cccs3)nc(Cl)c2cc1OC to CCC1CC(O)c2c(O)c3c(c(O)c2C1O)C(=O)c1cccc(O)c1C3=O (stereo not drawn) (tested in a mixture with another compound), the TGI falls from > 100 µM to 0.271 µM.

What follows are compounds tested on A549 NSCLC (assay: NCI-60 cell line screen, 48 h).

CC(=O)O[C@@]12CO[C@@H]1CC(O)[C@@]1(C)C(=O)[C@H](O)C3=C(C)C(O)C[C@@](O)(C(OC(=O)c4ccccc4)C12)C3(C)C (stereo partly drawn) and COC(=O)N[C@H](C(=O)NC(OCc1ccccc1)C1COC(C)(C)O1)C(C)O[Si](C)(C)C(C)(C)C (stereo partly drawn) cannot be ordered by TGI: > 100 µM for the first, > 100 µM for the second.

COc1ccc(CNc2nc(NC3CCCCC3)nc(NC3CCCCC3)n2)cc1 and CC(=O)O[C@]12CCCCCC1C1(O)C(O)CCCCC12 (stereo partly drawn) cannot be ordered by TGI: > 100 µM for the first, > 100 µM for the second.

Compared with CN(C)CCCNc1ccc2ncn3c4ccc(O)cc4c(=O)c1c23, CCCCC1Cc2cc(O)ccc2-c2nc3cc(O)ccc3n21 (stereo not drawn) (tested in a mixture with another compound) is 6.6-fold higher in TGI: 5.82 µM for the first, 38.6 µM for the second.

Cc1ccc(NC(=O)C(=O)C2C(=O)NC(=O)NC2=O)cc1C and CC(NC(=O)c1c(O)[nH]c(=S)[nH]c1=O)c1ccc([N+](=O)[O-])cc1 (stereo not drawn) cannot be ordered by TGI: > 100 µM for the first, > 100 µM for the second.

S=C1NCCN1C(=S)Nc1ccccc1 and Cc1n[n+](Cc2ccccc2)c2sc(N)nn12 cannot be ordered by TGI: > 100 µM for the first, > 100 µM for the second.

C[n+]1c2ccccc2c(NC(CCCN=C(N)N)C(=O)O)c2ccccc21 (stereo not drawn) and CC(NC(=O)Cc1ccccc1)NC(=O)C(C)C(=O)NCc1ccccc1 (stereo not drawn) cannot be ordered by TGI: > 100 µM for the first, > 100 µM for the second.

CCOC(=O)c1ccc(-c2ccc(Cl)cc2)[nH]1 and COc1ccc2nc3cc(Cl)ccc3c(Sc3ccc(NC(C)=O)cc3)c2c1 cannot be ordered by TGI: > 10 µM for the first, > 100 µM for the second.

CC1CC(Nc2ccc(Br)cc2)N(C(=O)c2ccc(Br)cc2)O1 (stereo not drawn) and COc1ccc(N2C(=O)C(=O)N(c3ccc(N=Nc4ccccc4)cc3)C2=S)cc1 cannot be ordered by TGI: > 10 µM for the first, 41.2 µM for the second.

OC(C/C=N/N=C/CC(O)(C(F)(F)Cl)C(F)(F)Cl)(C(F)(F)Cl)C(F)(F)Cl and COc1ccc(/C=N/N=C(\N)NO)c(OC)c1C cannot be ordered by TGI: > 10 µM for the first, 44.9 µM for the second.

O=C1C=C(Nc2ccc(S(=O)(=O)Nc3nccs3)cc2)c2ccccc2C1=O and Nc1c(S(=O)(=O)c2ccccc2)c2nc3ccccc3nc2n2c1nc1ccccc12 cannot be ordered by TGI: > 100 µM for the first, > 100 µM for the second.

O=c1[nH]c2nc3ccccc3c(=O)n2/c1=C/c1cccs1 and Cc1[nH]n(-c2nc(O)c(-c3ccccc3)c(=O)[nH]2)c(=O)c1CCO cannot be ordered by TGI: > 100 µM for the first, > 100 µM for the second.

Cc1cc(C)nc(NC(P(=O)(O)O)P(=O)(O)O)n1 and Cc1ccc(S(=O)(=O)C2=C(C(C)C)N=NC2(C)C)cc1 cannot be ordered by TGI: > 100 µM for the first, > 100 µM for the second.

CCCC(=O)[O-].CCCC(=O)[O-].NCCN.NCCN.[Co+3].[O-][Cl+3]([O-])([O-])[O-] and CCOC(=O)CCC1(CCC(=O)OCC)CCCCCCCCC(CCC(=O)OCC)(CCC(=O)OCC)C(=O)C1=O cannot be ordered by TGI: > 100 µM for the first, > 100 µM for the second.

O=C1CCSCCC(=O)Nc2ccccc2N1 and CC(=O)c1c(N=[N+]=[N-])c2cccc3c2n(c1=O)CCC3 cannot be ordered by TGI: > 100 µM for the first, > 100 µM for the second.

Cc1ccc(CSC(N)=Nc2ccccc2)cc1C and COc1cccc(-c2nc(-c3cnccn3)n(C/C=C/c3ccccc3)n2)c1 cannot be ordered by TGI: > 100 µM for the first, > 10 µM for the second.

C=C1CCCCCCCCC/C=C/1SCCCSC and C=C1CC[C@H]2C(=O)OC(c3ccoc3)C[C@]2(C)C/C=C\C=C/1C(=O)OC (stereo partly drawn) cannot be ordered by TGI: > 100 µM for the first, > 25 µM for the second.

First: O=C1C(Br)=CC2(C=C1Br)CCNC1=C2C(=O)c2ncccc2C1=O
Second: COCn1cnc2c(=O)nc(SC)n(-c3ccccc3)c21
The TGI of the first is lower: 3.32 µM for the first, > 100 µM for the second.

COC(=O)[C@@H](NC(=O)N(Cc1ccccc1)C[C@H](CC(C)C)NC(=O)[C@@H](NC(=O)OC(C)(C)C)C(C)C)C(C)C and NC1(CCNC(=O)c2ccccc2)CCN(C(=O)c2ccccc2)CC1 cannot be ordered by TGI: > 100 µM for the first, > 100 µM for the second.

Compared with O=Cc1ccc(-c2ccc(-c3ccc(CO)s3)o2)s1, O=C(NCCN1CCOCC1)c1ccc(I)cc1 is higher in TGI: 98.8 µM for the first, > 100 µM for the second.

CN1CC=C(c2c(N)nc(N)[nH]c2=O)CC1 and CN1CCc2c(sc3[nH]c(=S)[nH]c(=S)c23)C1 cannot be ordered by TGI: > 100 µM for the first, > 100 µM for the second.

CC(=O)Nc1c(C(=N)C#N)ncn1CCO and COc1ccc(/C(Cl)=C(\C#N)c2ccc(OC)c(OC)c2)cc1OC cannot be ordered by TGI: > 100 µM for the first, > 100 µM for the second.

With COc1cc2nc(-c3cccs3)nc(Cl)c2cc1OC the TGI was > 100 µM.

The compounds below were run on HCT-15 colon (assay: NCI-60 cell line screen, 48 h).

CC(=O)O[C@@]12CO[C@@H]1CC(O)[C@@]1(C)C(=O)[C@H](O)C3=C(C)C(O)C[C@@](O)(C(OC(=O)c4ccccc4)C12)C3(C)C (stereo partly drawn) and COC(=O)N[C@H](C(=O)NC(OCc1ccccc1)C1COC(C)(C)O1)C(C)O[Si](C)(C)C(C)(C)C (stereo partly drawn) cannot be ordered by TGI: > 100 µM for the first, > 100 µM for the second.

Compared with COc1ccc(CNc2nc(NC3CCCCC3)nc(NC3CCCCC3)n2)cc1, CC(=O)O[C@]12CCCCCC1C1(O)C(O)CCCCC12 (stereo partly drawn) is higher in TGI: 5.5 µM for the first, > 100 µM for the second.

CN(C)CCCNc1ccc2ncn3c4ccc(O)cc4c(=O)c1c23 and CCCCC1Cc2cc(O)ccc2-c2nc3cc(O)ccc3n21 (stereo not drawn) (tested in a mixture with another compound) are within 1.5-fold of each other in TGI: 16.8 µM for the first, 25 µM for the second.

Cc1ccc(NC(=O)C(=O)C2C(=O)NC(=O)NC2=O)cc1C and CC(NC(=O)c1c(O)[nH]c(=S)[nH]c1=O)c1ccc([N+](=O)[O-])cc1 (stereo not drawn) cannot be ordered by TGI: > 100 µM for the first, > 100 µM for the second.

S=C1NCCN1C(=S)Nc1ccccc1 and Cc1n[n+](Cc2ccccc2)c2sc(N)nn12 cannot be ordered by TGI: > 100 µM for the first, > 100 µM for the second.

C[n+]1c2ccccc2c(NC(CCCN=C(N)N)C(=O)O)c2ccccc21 (stereo not drawn) and CC(NC(=O)Cc1ccccc1)NC(=O)C(C)C(=O)NCc1ccccc1 (stereo not drawn) cannot be ordered by TGI: > 100 µM for the first, > 100 µM for the second.

CCOC(=O)c1ccc(-c2ccc(Cl)cc2)[nH]1 and Cc1ccc(CSC(N)=Nc2ccccc2)cc1C cannot be ordered by TGI: > 10 µM for the first, 60.1 µM for the second.

CC1CC(Nc2ccc(Br)cc2)N(C(=O)c2ccc(Br)cc2)O1 (stereo not drawn) and COc1ccc(N2C(=O)C(=O)N(c3ccc(N=Nc4ccccc4)cc3)C2=S)cc1 cannot be ordered by TGI: > 10 µM for the first, 32.4 µM for the second.

OC(C/C=N/N=C/CC(O)(C(F)(F)Cl)C(F)(F)Cl)(C(F)(F)Cl)C(F)(F)Cl and COc1ccc(/C=N/N=C(\N)NO)c(OC)c1C cannot be ordered by TGI: > 10 µM for the first, > 100 µM for the second.

Going from O=C1C=C(Nc2ccc(S(=O)(=O)Nc3nccs3)cc2)c2ccccc2C1=O to Nc1c(S(=O)(=O)c2ccccc2)c2nc3ccccc3nc2n2c1nc1ccccc12, the TGI rises from 79.4 µM to > 100 µM.

O=c1[nH]c2nc3ccccc3c(=O)n2/c1=C/c1cccs1 and Cc1[nH]n(-c2nc(O)c(-c3ccccc3)c(=O)[nH]2)c(=O)c1CCO cannot be ordered by TGI: > 100 µM for the first, > 100 µM for the second.

Cc1cc(C)nc(NC(P(=O)(O)O)P(=O)(O)O)n1 and Cc1ccc(S(=O)(=O)C2=C(C(C)C)N=NC2(C)C)cc1 cannot be ordered by TGI: > 100 µM for the first, > 100 µM for the second.

CCCC(=O)[O-].CCCC(=O)[O-].NCCN.NCCN.[Co+3].[O-][Cl+3]([O-])([O-])[O-] and CCOC(=O)CCC1(CCC(=O)OCC)CCCCCCCCC(CCC(=O)OCC)(CCC(=O)OCC)C(=O)C1=O cannot be ordered by TGI: > 100 µM for the first, > 100 µM for the second.

First: O=C1CCSCCC(=O)Nc2ccccc2N1
Second: CC(=O)c1c(N=[N+]=[N-])c2cccc3c2n(c1=O)CCC3
The TGI of the first is higher: > 100 µM for the first, 47.4 µM for the second.

C=C1CCCCCCCCC/C=C/1SCCCSC and C=C1CC[C@H]2C(=O)OC(c3ccoc3)C[C@]2(C)C/C=C\C=C/1C(=O)OC (stereo partly drawn) cannot be ordered by TGI: > 100 µM for the first, > 25 µM for the second.

COc1cccc(-c2nc(-c3cnccn3)n(C/C=C/c3ccccc3)n2)c1 and COCn1cnc2c(=O)nc(SC)n(-c3ccccc3)c21 cannot be ordered by TGI: > 10 µM for the first, > 100 µM for the second.

First: O=C1C(Br)=CC2(C=C1Br)CCNC1=C2C(=O)c2ncccc2C1=O
Second: COc1cc2nc(-c3cccs3)nc(Cl)c2cc1OC
The TGI of the first is lower: 2.64 µM for the first, > 100 µM for the second.

COC(=O)[C@@H](NC(=O)N(Cc1ccccc1)C[C@H](CC(C)C)NC(=O)[C@@H](NC(=O)OC(C)(C)C)C(C)C)C(C)C and NC1(CCNC(=O)c2ccccc2)CCN(C(=O)c2ccccc2)CC1 cannot be ordered by TGI: > 100 µM for the first, > 100 µM for the second.

O=Cc1ccc(-c2ccc(-c3ccc(CO)s3)o2)s1 and O=C(NCCN1CCOCC1)c1ccc(I)cc1 cannot be ordered by TGI: > 100 µM for the first, > 100 µM for the second.

CN1CC=C(c2c(N)nc(N)[nH]c2=O)CC1 and CN1CCc2c(sc3[nH]c(=S)[nH]c(=S)c23)C1 cannot be ordered by TGI: > 100 µM for the first, > 100 µM for the second.

CC(=O)Nc1c(C(=N)C#N)ncn1CCO and COc1ccc(/C(Cl)=C(\C#N)c2ccc(OC)c(OC)c2)cc1OC cannot be ordered by TGI: > 100 µM for the first, > 100 µM for the second.

Work on CCC1CC(O)c2c(O)c3c(c(O)c2C1O)C(=O)c1cccc(O)c1C3=O (stereo not drawn) (tested in a mixture with another compound) yielded a GI50 of 0.0237 µM.

The compounds below were run on SK-MEL-28 melanoma (assay: NCI-60 cell line screen, 48 h).

Going from COc1ccc(CNc2nc(NC3CCCCC3)nc(NC3CCCCC3)n2)cc1 to CN(C)CCCNc1ccc2ncn3c4ccc(O)cc4c(=O)c1c23, the TGI falls from > 100 µM to 18.1 µM.

Cc1ccc(NC(=O)C(=O)C2C(=O)NC(=O)NC2=O)cc1C and CC1CC(Nc2ccc(Br)cc2)N(C(=O)c2ccc(Br)cc2)O1 (stereo not drawn) cannot be ordered by TGI: > 100 µM for the first, > 10 µM for the second.

In the case of S=C1NCCN1C(=S)Nc1ccccc1, the TGI was > 100 µM.
